Results from patent US12472166B2, “Inhibition of mycobacterial type VII secretion” (priority 2019, dated 2025).
Read-outs that look alike come from different tables or passages of the source.

Assays:
M. tuberculosis = experiment: microbe, parasite or virus in culture; format: cell-based; conditions: for IC50: read-out: IC50 (μM) M.tb/REMA; for IC90: read-out: IC90 (μM) M.tb/REMA; for increase of activity as compared to compound I-12: tested on M. tuberculosis
[1] = human, microsomes, pH 7.4; for Half-life: 15 μM; for Compound remaining (%): 0.5 h
in vitro = conditions: human, microsomes, pH 7.4
M. tuberculosis H37Rv WT = experiment: THP-1 macrophage infection study, CFU counting; format: cell-based, Mycobacterium tuberculosis
zebrafish embryos = conditions: in vivo
[2] = test system: M. marinum WT bacteria expressing rfp; conditions: 10 μM
Method: To assess anti-bacterial activity of the compounds in an animal model, zebra-fish embryos were infected by injection of WT M. marinum into the cardinal vein. The bacteria express rfp, which enables the quantification of infection in vivo by measuring red fluorescence. After injection of the bacteria into the fish, the infection was allowed to establish for 20 h. Then, the test compounds or DMSO control were added for three days before the infection was quantified by measuring fluorescence in each fish. […] Dechorionated zebra fish embryos were one day post fertilization infected by microinjection into the cardinal vein with 70 M. marinum WT bacteria expressing rfp. 20 h after infection, the compounds were added to the fish water at the indicated concentrations. After 4 days post infection the fish were imaged on a fluorescent microscope (A) and red pixels were quantified (B). As control served non-treated fish and non-infected fish. The fish water of all groups contained equal amounts of DMSO. Each data point represents a single fish. […] Statistical analysis was determined by ANOVA testing by comparing each group to the non-treated group of fish. p>0.05, not significant, not indicated. p<0.05=*, p<0.01=**, p<0.001=***.

[3] = Mycobacterium tuberculosis, 168 h, replicating M. tuberculosis, seven days, 37° C.
[4] = Mycobacterium tuberculosis, concentration that reduced bacterial viability to lower than 10%
[5] = THP-1 macrophages, MOI 1, day 5
[6] = Mycobacterium tuberculosis, 168 h

## CCCCCNC(=O)CSc1nc(-c2ccc(OC)cc2)ns1 [Compound I-2]
M. tuberculosis; [3]
  IC50: 0.098 µM
M. tuberculosis; [4]
  IC90: 0.31 µM

## O=C(CSc1nc(-c2cccnc2)ns1)NC1CCCC1 [Compound I-19]
M. tuberculosis; [3]
  IC50: 0.502 µM
M. tuberculosis; [4]
  IC90: 2.5 µM

## O=C(CSc1nc(-c2ccncc2)ns1)NC1CCCC1 [Compound I-23]
M. tuberculosis; [3]
  IC50: 0.762 µM
M. tuberculosis; [4]
  IC90: 2.5 µM

## CCCNC(=O)COc1nc(-c2ccccc2)ns1 [Compound I-42]
M. tuberculosis; [3]
  IC50: > 10 µM
M. tuberculosis; [4]
  IC90: > 10 µM

## COc1ccc(-c2nsc(SCC(=O)NCCC(F)(F)F)n2)cc1 [Compound I-34]
M. tuberculosis; [3]
  IC50: 0.038 µM
M. tuberculosis; [4]
  IC90: 0.31 µM

## CCCNC(=O)CSc1nc(-c2ccc(Cl)cc2)ns1 [Compound I-36]
[1]
  Half-life: 43.2 min
  Compound remaining (%): 62%
In vitro
  CLint scaled at 15 μM: 14.4 mL/min/kg
M. tuberculosis; [3]
  IC50: 0.058 µM
M. tuberculosis; [4]
  IC90: 0.16 µM

## CCNC(=O)CSc1nc(-c2ccccc2)ns1 [Compound I-10]
M. tuberculosis; [3]
  IC50: 0.383 µM
M. tuberculosis; [4]
  IC90: 1.25 µM

## COc1cccc(-c2nsc(SCC(=O)NC3CCCC3)n2)c1 [Compound I-8]
M. tuberculosis; [3]
  IC50: 0.076 µM
M. tuberculosis; [4]
  IC90: 1.25 µM

## COCCNC(=O)CSc1nc(-c2ccc(OC)cc2)ns1 [Compound I-4]
M. tuberculosis; [3]
  IC50: 0.133 µM
M. tuberculosis; [4]
  IC90: 0.63 µM

## O=C(COc1nc(-c2ccccc2)ns1)NC1CCCC1 [Compound I-33]
[1]
  Half-life: 61.8 min
  Compound remaining (%): 72%
In vitro
  CLint scaled at 15 μM: 10.1 mL/min/kg
M. tuberculosis; [3]
  IC50: 7.85 µM
M. tuberculosis; [4]
  IC90: 10 µM

## O=C(CSc1nc(-c2ccccc2)ns1)NC1CCCC1 [Compound I-26]
M. tuberculosis; [3]
  IC50: 1.17 µM
M. tuberculosis; [4]
  IC90: 5 µM

## COc1ccc(-c2nsc(SCC(=O)Nc3ccccc3)n2)cc1 [Compound I-21]
M. tuberculosis; [3]
  IC50: 0.559 µM
M. tuberculosis; [4]
  IC90: 2.5 µM

## COc1ccc(-c2nsc(SCC(=O)NCc3ccccc3)n2)cc1 [Compound I-30]
M. tuberculosis; [3]
  IC50: 2.42 µM
M. tuberculosis; [4]
  IC90: 10 µM

## Cc1cccc(-c2nsc(SCC(=O)NC3CCCC3)n2)c1 [Compound I-16]
M. tuberculosis; [3]
  IC50: 0.121 µM
M. tuberculosis; [4]
  IC90: 2.5 µM

## O=C(CSc1nc(-c2ccccc2)ns1)NC1CCCC1 [Compound I-5]
[1]
  Half-life: 70.8 min
  Compound remaining (%): 75%
In vitro
  CLint scaled at 15 μM: 8.78 mL/min/kg
M. tuberculosis
  IC50: 0.256 µM
  IC90: 0.63 µM
  increase of activity as compared to compound I-12: two-fold
M. tuberculosis H37Rv WT; [5]
  concentration required to reduce the bacterial load below the initial amount on day 0: 10 µM
  concentration with significant decrease of bacterial load as compared to the DMSO control: 3 µM

## COc1ccc(-c2nsc(SCC(=O)NC(C)(C)C)n2)cc1 [Compound I-32]
M. tuberculosis; [3]
  IC50: 0.109 µM
M. tuberculosis; [4]
  IC90: > 10 µM

## CCOC(=O)CNC(=O)CSc1nc(-c2cccc(C)c2)ns1 [Compound I-40, reference compound]
Zebrafish embryos
  toxicity (survival of zebra fish embryos scored by heartbeat): toxic
M. tuberculosis; [6]
  IC50: 0.169 µM
M. tuberculosis; Mycobacterium tuberculosis
  IC90: 0.31 µM

## O=C(CSc1nc(-c2ccccc2)no1)NC1CCCC1 [Compound I-28]
M. tuberculosis; [6]
  IC50: 2.11 µM
M. tuberculosis; Mycobacterium tuberculosis
  IC90: 5 µM

## CCCNC(=O)CSc1nc(-c2ccc(OC)cc2)ns1 [Compound I-3]
[1]
  Half-life: 9 min
  Compound remaining (%): 11%
In vitro
  CLint scaled at 15 μM: 67.4 mL/min/kg
[2]
  bacterial fluorescence: reduction of bacterial fluorescence to background levels
M. tuberculosis; [3]
  IC50: 0.123 µM
M. tuberculosis; [4]
  IC90: 0.63 µM
M. tuberculosis
  increase of activity as compared to compound I-12: four-fold
M. tuberculosis H37Rv WT; 10 μM
  activity compared with Ethambutol (EMB): as active as EMB
  activity compared with Streptomycin (STR): higher activity than STR
  reduction of bacteria as compared to the DMSO control: approximately 100 fold
M. tuberculosis H37Rv WT; [5]
  concentration with significant decrease of bacterial load as compared to the DMSO control: 1 µM

## COc1ccc(-c2nsc(SCC(=O)N3CCCCC3)n2)cc1 [Compound I-11]
M. tuberculosis; [3]
  IC50: 0.531 µM
M. tuberculosis; [4]
  IC90: 1.25 µM

## COc1ccc(-c2nsc(SCC(=O)NC3CC3)n2)cc1 [Compound I-13]
M. tuberculosis; [3]
  IC50: 0.478 µM
M. tuberculosis; [4]
  IC90: 1.25 µM
